# From patent US20240197596A1, “COMPOUNDS USEFUL AS HAIR DYES” (National University of Singapore, priority 2021, published 2024)
# Values joined by “and” are separate entries in the source; they are usually repeats but may differ in a detail not shown here. Identical values can stand only once.
# Experiments:
# Hair nuance test = experiment: Hair nuance test; design: key to L* / a* / b*: CIELAB L*, a*, b* coordinates; key to ΔE (total colour difference to natural hair): ΔE = √((L*−L0)²+(a*−a0)²+(b*−b0)²) vs untreated hair; conditions: for eventual colour of bleached hair, Type B: Type B (Oxidative, H2O2) formulation; for eventual colour of bleached hair, Type C: Type C (Oxidative with coupler resorcinol) formulation
# Protocol: 35 g of bleaching powder was mixed with 50 mL of developer then applied onto undyed black hair (wrapped in aluminium foil to enhance the bleaching process) and left on for 45 min. The hair was then rinsed with deionized water and shampoo and left to dry. This process was repeated twice.
# Hair dye formulations were prepared from N1-N13 according to methods reported (New Journal of Chemistry. 2019; 43(41):16188-99), and with the compositions stated in Table 11 Bleached hair samples were immersed into the respective formulations for 20 min, then air dried for 20 min. Then they were shampooed twice and treated with conditioner for 5 min.
# SkinColorCatch (Delfin Technologies Ltd, Kuopio, Finland) was used to measure CIELAB tristimulus L*, a* and b* values of the dyed hair samples and baseline L0, a0, b0 values from untreated hair. The difference in colour tone (ΔH) and the total colour difference (ΔE) were then derived from the values obtained with the equations below:
# ΔH=√{square root over ((a*−a0)^2+(b*−b0)^2)}
# ΔE=√{square root over ((L*−L0)^2+(a*−a0)^2+(b*−b0)^2)}
# THP-1 cells = experiment: MTT assay on THP-1 cells (CV75); type: cell-based, human; conditions: THP-1 cells, 24 h
# Summary of the method: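 THP-1 cells seeded at 1×10^5 cells/well, grown 24 h at 37 °C/5% CO2, then exposed to a dilution series for 24 h (6 replicates). MTT added for 3 h, formazan dissolved in DMSO, absorbance read at 570 nm; CV75 derived from % viability.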
# [1] = Skin permeation study, Franz diffusion cell; type: in vitro ADME, porcine; conditions: for Cumulative amount at 8th hour: 1% w/v in deionized water; for Permeated through skin into receptor / Recovered in donor compartment / Recovered in skin / Recovered in skin outside diffusion area / Recovered in skin swabs / Recovered on parafilm and in washes: mass balance; for recovery at 8 h, 1 % w/v: pig, end of 8 h, read-out: Total recovery (mean percentage parent compound recovery)
# Protocol: In each Franz cell, a piece of pig ear skin prepared to a thickness of […] was clamped securely. 5 mL of PBS solution was added to the receiver compartment which was purged of air bubbles to ensure maximal contact of the skin piece with the solution. Donor solution was prepared by dissolving N1-N13 in deionized water at 1% w/v, and 900 μL was added to the donor compartment. The study was conducted for 8 h, and aliquots of 200 μL were removed from the receiver solution and topped up with fresh PBS at each timepoint of 15-minutes intervals for the first hour and every hour after that.
# For mass balance, at the end of 8 h, skin pieces and swabs of the top and bottom surface of the skin were collected and stored in ACN for N1-N13 extraction. Donor solution and receiver solution were also collected.
# The aliquot samples collected were subjected to 2-step extraction using 750 μL of dichloromethane (DCM). […] The solvent was dried using the TurboVap, and then reconstituted with 198 μL of 0.1% formic acid in 50% methanol in water and spiked with 2 μL of ANP (internal standard). The processed aliquot samples and mass balance samples were then sent for analysis using LC-MS/MS. The compounds' steady state fluxes and permeability coefficients were then calculated by fitting the solution to Fick's […] of diffusion at the steady state (linear part) of each experimental cumulative amount curve.
# HaCaT cells = experiment: MTT assay on HaCaT cells; type: cell-based; conditions: Homo sapiens; HaCaT cells, 72 h, MTT; read-out: IC50
# Protocol: HaCaT (human, adult, low calcium, high temperature, skin keratinocyte) cell suspension was adjusted to 5×10^3 cells per well and seeded in 96-well plates, then incubated at 37° C. with 5% CO2. After 24 h, 10 mM stock solutions of N1-N13 in autoclaved milli-Q water were prepared and serially diluted concentrations were added to the wells. Each concentration was performed in 6-replicates, and seeded wells with only media and no compound were used as controls while wells with only media were used as blanks. The plate was incubated for 72 h, after which 100 μL of MTT reagent was added and the plate was further incubated for 3 h before adding 100 μL of DMSO. Subsequently, the plate was shaken for 20 min, and then absorbance at 570 nm was determined using a Bio-Tek plate reader.
# [2] = Type C (Oxidative with coupler resorcinol)
Compound,L* (Hair nuance test; Type A (Non-oxidative)),a* (Hair nuance test; Type A (Non-oxidative)),b* (Hair nuance test; Type A (Non-oxidative)),ΔE (total colour difference to natural hair) (Hair nuance test; Type A (Non-oxidative)),ΔH (difference in colour tone) (Hair nuance test; Type A (Non-oxidative)),L* (Hair nuance test; Type B (Oxidative)),a* (Hair nuance test; Type B (Oxidative)),b* (Hair nuance test; Type B (Oxidative)),ΔE (total colour difference to natural hair) (Hair nuance test; Type B (Oxidative)),ΔH (difference in colour tone) (Hair nuance test; Type B (Oxidative)),"eventual colour of bleached hair, Type B (Hair nuance test)",L* (Hair nuance test; [2]),a* (Hair nuance test; [2]),b* (Hair nuance test; [2]),ΔE (total colour difference to natural hair) (Hair nuance test; [2]),ΔH (difference in colour tone) (Hair nuance test; [2]),"eventual colour of bleached hair, Type C (Hair nuance test)","CV75 (concentration affording 75% cell viability), 1 × CV75 (THP-1 cells) [µg/mL]",Cumulative amount at 8th hour ([1]; 8 h),Permeated through skin into receptor ([1]; 8 h),further results
"CCC(=O)COc1cc(N)ccc1N [Compound N11, 1-(2,5-diaminophenoxy)butan-2-one]",36,5,8,28.33,5.32,9,0,−1,2,1.41,black colour,32,18,25,37.8,6.14,Pale Brown,65.4,0.00794 μg/cm^2,<0.001 % of applied compound dose,"eventual colour of bleached hair, Type A (Hair nuance test; Type A (Non-oxidative) formulation): Greyish brown; Cumulative amount comparison of PPD vs derivatives (times less than PPD) ([1]; 8 h): 680; Recovered in donor compartment ([1]; 8 h): 93.7 % of applied compound dose; Recovered in skin ([1]; 8 h): 0.06 % of applied compound dose; Recovered in skin outside diffusion area ([1]; 8 h): 0.002 % of applied compound dose; Recovered in skin swabs ([1]; 8 h): 0.025 % of applied compound dose; Recovered on parafilm and in washes ([1]; 8 h): 0.005 % of applied compound dose; recovery at 8 h, 1 % w/v [1]: 93.8 ± 1.3%; IC50 (HaCaT cells): 196 µM"
"C=C(C)Oc1cc(N)ccc1N [Compound N12, 2-(prop-1-en-2-yloxy)benzene-1,4-diamine]",17,9,4,12.4,3.52,28,18,12,28.39,5.32,brown colour,11,0,−3,4.47,2.11,distinct purple colour,44.7,0.0145 μg/cm^2 and 0.0144 μg/cm^2,<0.001 % of applied compound dose,"Recovered in donor compartment ([1]; 8 h): 96.0 % of applied compound dose; Recovered in skin ([1]; 8 h): 0.02 % of applied compound dose; Recovered in skin outside diffusion area ([1]; 8 h): 0.0045 % of applied compound dose; Recovered in skin swabs ([1]; 8 h): 0.05 % of applied compound dose; Recovered on parafilm and in washes ([1]; 8 h): 0.007 % of applied compound dose; recovery at 8 h, 1 % w/v [1]: 96.1 ± 1%; IC50 (HaCaT cells): 127 µM"
"CNCCOc1cc(N)ccc1N [Compound N13, 2-(2-(methylamino)ethoxy)benzene-1,4-diamine]",24,8,8,18.38,4.28,36,11,18,33.74,5.8,Grey,25,14,11,23.49,4.84,Brown,54.3,0.0106 μg/cm^2,<0.001 % of applied compound dose,"Recovered in donor compartment ([1]; 8 h): 93.0 % of applied compound dose; Recovered in skin ([1]; 8 h): 0.03 % of applied compound dose; Recovered in skin outside diffusion area ([1]; 8 h): 0.003 % of applied compound dose; Recovered in skin swabs ([1]; 8 h): 0.02 % of applied compound dose; Recovered on parafilm and in washes ([1]; 8 h): 0.003 % of applied compound dose; recovery at 8 h, 1 % w/v [1]: 93.1 ± 1.2%; IC50 (HaCaT cells): 120 µM"
